According to ChEMBL document CHEMBL1153563, “Comparative in vitro activities of caspofungin and micafungin, determined using the method of the European Committee on Antimicrobial Susceptibility Testing, against yeast isolates obtained in France in 2005-2006” (2008):

What was measured:
Type in all cases: functional
Candida albicans = test: Antifungal activity against Candida albicans after 24 to 48 hrs by AFST-EUCAST based broth microdilution method
Nakaseomyces glabratus = test: Antifungal activity against Candida glabrata after 24 to 48 hrs by AFST-EUCAST based broth microdilution method
Candida parapsilosis = test: Antifungal activity against Candida parapsilosis ATCC 22019 after 24 to 48 hrs by AFST-EUCAST based broth microdilution method; conditions: Lodderomyces parapsilosis
Candida tropicalis = test: Antifungal activity against Candida tropicalis after 24 to 48 hrs by AFST-EUCAST based broth microdilution method
[1] = test system: Meyerozyma guilliermondii; test: Antifungal activity against Candida guilliermondii after 24 to 48 hrs by AFST-EUCAST based broth microdilution method
Pichia kudriavzevii = test: Antifungal activity against Candida krusei ATCC 6258 after 24 to 48 hrs by AFST-EUCAST based broth microdilution method
Kluyveromyces marxianus = test: Antifungal activity against Candida kefyr after 24 to 48 hrs by AFST-EUCAST based broth microdilution method
[Candida] haemuloni = Antifungal activity against Candida haemulonii after 24 to 48 hrs by AFST-EUCAST based broth microdilution method; conditions: Candidozyma haemuli
Clavispora lusitaniae = test: Antifungal activity against Candida lusitaniae after 24 to 48 hrs by AFST-EUCAST based broth microdilution method
Meyerozyma caribbica = test: Antifungal activity against Candida fermentati after 24 to 48 hrs by AFST-EUCAST based broth microdilution method
Candida dubliniensis = test: Antifungal activity against Candida dubliniensis after 24 to 48 hrs by AFST-EUCAST based broth microdilution method
Yarrowia lipolytica = test: Antifungal activity against Candida lipolytica after 24 to 48 hrs by AFST-EUCAST based broth microdilution method
Debaryomyces hansenii = test: Antifungal activity against Candida famata after 24 to 48 hrs by AFST-EUCAST based broth microdilution method
Wickerhamomyces anomalus = test: Antifungal activity against Candida pelliculosa after 24 to 48 hrs by AFST-EUCAST based broth microdilution method; conditions: Hansenula anomala
Diutina rugosa = test: Antifungal activity against Candida rugosa after 24 to 48 hrs by AFST-EUCAST based broth microdilution method
Cyberlindnera jadinii = test: Antifungal activity against Candida utilis after 24 to 48 hrs by AFST-EUCAST based broth microdilution method; conditions: Williopsis jadinii
[Candida] inconspicua = Antifungal activity against Candida inconspicua after 24 to 48 hrs by AFST-EUCAST based broth microdilution method; conditions: Pichia inconspicua
[Candida] intermedia = Antifungal activity against Candida intermedia after 24 to 48 hrs by AFST-EUCAST based broth microdilution method; conditions: Sungouiella intermedia
Candida africana = test: Antifungal activity against Candida africana after 24 to 48 hrs by AFST-EUCAST based broth microdilution method
Pichia fermentans = test: Antifungal activity against Candida lambica after 24 to 48 hrs by AFST-EUCAST based broth microdilution method
Nakaseomyces nivariensis = test: Antifungal activity against Candida nivariensis after 24 to 48 hrs by AFST-EUCAST based broth microdilution method
Pichia norvegensis = test: Antifungal activity against Candida norvegensis after 24 to 48 hrs by AFST-EUCAST based broth microdilution method
Kluyveromyces lactis = test: Antifungal activity against Candida sphaerica after 24 to 48 hrs by AFST-EUCAST based broth microdilution method
Saccharomyces cerevisiae = test: Antifungal activity against Saccharomyces cerevisiae after 24 to 48 hrs by AFST-EUCAST based broth microdilution method
Geotrichum = test: Antifungal activity against Geotrichum after 24 to 48 hrs by AFST-EUCAST based broth microdilution method
Cyberlindnera saturnus = test: Antifungal activity against Williopsis saturnus after 24 to 48 hrs by AFST-EUCAST based broth microdilution method
Kodamaea ohmeri = test: Antifungal activity against Kodamaea ohmeri after 24 to 48 hrs by AFST-EUCAST based broth microdilution method
Zygosaccharomyces = test: Antifungal activity against Zygosaccharomyces after 24 to 48 hrs by AFST-EUCAST based broth microdilution method
Cryptococcus neoformans = test: Antifungal activity against […] after 24 to 48 hrs by AFST-EUCAST based broth microdilution method
Trichosporon = test: Antifungal activity against Trichosporon after 24 to 48 hrs by AFST-EUCAST based broth microdilution method
Rhodotorula mucilaginosa = test: Antifungal activity against Rhodotorula mucilaginosa after 24 to 48 hrs by AFST-EUCAST based broth microdilution method

CC[C@H](C)C[C@H](C)CCCCCCCCC(=O)N[C@H]1C[C@@H](O)[C@@H](NCCN)NC(=O)[C@@H]2[C@@H](O)CCN2C(=O)[C@H]([C@H](O)CCN)NC(=O)[C@H]([C@H](O)[C@@H](O)c2ccc(O)cc2)NC(=O)[C@@H]2C[C@@H](O)CN2C(=O)[C@H]([C@@H](C)O)NC1=O [CASPOFUNGIN]
2 µg/mL: MIC50 (Candida parapsilosis) | MIC90 (Candida parapsilosis) | MIC50 [1] | MIC90 [1] | MIC90 (Pichia kudriavzevii) | MIC90 ([Candida] haemuloni) | MIC90 (Meyerozyma caribbica)
16 µg/mL: MIC90 (Saccharomyces cerevisiae) | MIC90 (Geotrichum) | MIC90 (Cyberlindnera saturnus) | MIC90 (Kodamaea ohmeri) | MIC90 (Zygosaccharomyces) | MIC90 (Cryptococcus neoformans) | MIC50 (Trichosporon) | MIC50 (Rhodotorula mucilaginosa)
8 µg/mL: MIC50 (Cryptococcus neoformans)
0.5 µg/mL: MIC50 (Candida albicans) | MIC90 (Candida albicans) | MIC50 (Nakaseomyces glabratus) | MIC50 (Candida tropicalis) | MIC90 (Kluyveromyces marxianus) | MIC50 (Candida dubliniensis) | MIC50 (Yarrowia lipolytica) | MIC50 (Debaryomyces hansenii) | MIC50 (Wickerhamomyces anomalus) | MIC50 (Diutina rugosa) | MIC50 (Cyberlindnera jadinii) | MIC50 ([Candida] inconspicua) | MIC50 ([Candida] intermedia) | MIC50 (Candida africana) | MIC50 (Pichia fermentans) | MIC50 (Nakaseomyces nivariensis) | MIC50 (Pichia norvegensis) | MIC50 (Kluyveromyces lactis)
1 µg/mL: MIC90 (Nakaseomyces glabratus) | MIC90 (Candida tropicalis) | MIC50 (Pichia kudriavzevii) | MIC50 ([Candida] haemuloni) | MIC50 (Clavispora lusitaniae) | MIC90 (Clavispora lusitaniae) | MIC50 (Meyerozyma caribbica) | MIC90 (Candida dubliniensis) | MIC90 (Yarrowia lipolytica) | MIC90 (Debaryomyces hansenii) | MIC90 (Wickerhamomyces anomalus) | MIC90 (Diutina rugosa) | MIC90 (Cyberlindnera jadinii) | MIC90 ([Candida] inconspicua) | MIC90 ([Candida] intermedia) | MIC90 (Candida africana) | MIC90 (Pichia fermentans) | MIC90 (Nakaseomyces nivariensis) | MIC90 (Pichia norvegensis) | MIC90 (Kluyveromyces lactis) | MIC50 (Saccharomyces cerevisiae) | MIC50 (Geotrichum) | MIC50 (Cyberlindnera saturnus) | MIC50 (Kodamaea ohmeri) | MIC50 (Zygosaccharomyces)
0.25 µg/mL: MIC50 (Kluyveromyces marxianus)
